Data: patent US6562870B1 (priority 1994, dated 2003)
Read-outs that look alike come from different tables or passages of the source.

How the values were obtained:
[1] = system: AIDS-associated NHL
Protocol: The daily dose is diluted in 1000 cc of 0.9% Sodium Chloride Injection, USP, or 5% Dextrose Injection, USP, for infusion over 24 hours.

[2] = in vivo; cited from earlier work
[3] = system: advanced NHL; settings: cited from earlier work
[4] = system: Raji line lymphoblast-like cells
Protocol: (§1) Both human tumor cell lines were maintained in RPMI 1640 medium plus 10% fetal calf serum. They were seeded in 15-ml rubber-stoppered vials containing 2 μCi of (^14C) glucose and 2 ml of tissue culture media. […] On days 6, 9 and 12, the vials were removed from the incubator and evaluated radiometrically for the amount of ^14CO2 produced. Inhibition of conversion of (^14C) glucose to ^14CO2 is a reliable index of cytotoxicity (Von Hoff et al., Cancer Res. 45:4032-4038, 1985).

[5] = system: AS283 cells
Protocol: as §1

[6] = stability of diluted infusion solutions; type: physicochemical; settings: in 0.9% Sodium Chloride Injection or 5% Dextrose Injection

| SMILES | response to previous treatment ([1]; same patient, before gallium nitrate) | blood-brain barrier passage [2] | tolerability and efficacy ([3]; HIV negative patients with advanced NHL) | myelosuppression or immunosuppression ([3]; human, in vivo) | % SURVIVAL RAJI ([4]; final concentration 1 mcg/ml) [%] | % SURVIVAL RAJI ([4]; final concentration 10 mcg/ml) [%] | % SURVIVAL RAJI ([4]; final concentration 100 mcg/ml) [%] | % SURVIVAL AS283 ([5]; final concentration 1 mcg/ml) [%] | % SURVIVAL AS283 ([5]; final concentration 10 mcg/ml) [%] | % SURVIVAL AS283 ([5]; final concentration 50 mcg/ml) [%] | % SURVIVAL AS283 ([5]; final concentration 100 mcg/ml) [%] | stability of diluted solution ([6]; refrigeration (2-8° C.)) [days] | stability of diluted solution ([6]; room temperature (15-30° C.)) [days] | drug-related adverse effects ([1]; 300 mg/sq m/day for 7 days iv, two courses) | size of nodes after first course ([1]; 300 mg/sq m/day for 7 days, intravenous infusion, baseline nodes 9.0×9.0 cm and 3.0×2.0 cm) | infraclavicular node after second course ([1]; second course three weeks later, baseline 9.0×9.0 cm) |
| --- | --- | --- | --- | --- | --- | --- | --- | --- | --- | --- | --- | --- | --- | --- | --- | --- |
| CC(/C=N/NC(=N)N)=N\NC(=N)N [mitoguazone] | essentially unresponsive | – | – | – | – | – | – | – | – | – | – | – | – | – | – | – |
| O=[N+]([O-])[O-].O=[N+]([O-])[O-].O=[N+]([O-])[O-].[Ga+3] [Gallium Nitrate, gallium nitrate] | – | crosses the blood-brain barrier | well tolerated and effective | little or no myelosuppression or immunosuppression | 102 | 114 | 33 | 99 | 122 | 58 | 0 | 7 | 2 | not accompanied by apparent drug-related adverse effects | decreased in size | not palpable at all |
